# Results taken from US8912218B2, “Alkylthiazol carbamate derivatives, preparation thereof and therapeutic use thereof” (Sanofi, priority 2008, dated 2014).
# Legend:
# male OF 1 mice = test: analgesia test: abdominal stretches induced by PBQ (phenylbenzoquinone); assay type: in vivo; settings: 30 mg/kg p.o. at 120 minutes, PBQ 2 mg/kg i.p.
# Experimental: The in vivo activity of the compounds of the invention was evaluated in an analgesia test.
# Accordingly, intraperitoneal (i.p.) administration of PBQ (phenylbenzoquinone, 2 mg/kg in a 0.9% sodium chloride solution containing 5% of ethanol) to male OF 1 mice weighing 25 to 30 g causes abdominal stretches, on average 30 twists or contractions during the period from 5 to 15 minutes after injection. The test compounds are administered orally (p.o.) or intraperitoneally (i.p.) in suspension in Tween 80 at 0.5%, 60 minutes or 120 minutes before the administration of PBQ.
# For example, compounds 28 and 30 of the table reduce by 33% and 80%, respectively, the number of stretches induced by PBQ, at a dose of 30 mg/kg p.o. at 120 minutes.
# [1] = target: T1, FAAH (Fatty Acid Amide Hydrolase) (Mus musculus, UniProt O08914); test: radioenzymatic assay of hydrolysis of anandamide [1-3H ethanolamine] by FAAH; assay type: biochemical; settings: mouse brain membrane homogenates; pre-incubation 20 minutes at 25° C.; anandamide final concentration 10 μM; read-out: IC50 (concentration inhibiting by 50% the control enzymatic activity of FAAH)
# T1 construct: Membrane homogenates are prepared at the time of use by homogenizing the tissues; from tissue; host or cells: mouse brain (minus the cerebellum), membrane homogenate
# T1 sequence (O08914 1-579): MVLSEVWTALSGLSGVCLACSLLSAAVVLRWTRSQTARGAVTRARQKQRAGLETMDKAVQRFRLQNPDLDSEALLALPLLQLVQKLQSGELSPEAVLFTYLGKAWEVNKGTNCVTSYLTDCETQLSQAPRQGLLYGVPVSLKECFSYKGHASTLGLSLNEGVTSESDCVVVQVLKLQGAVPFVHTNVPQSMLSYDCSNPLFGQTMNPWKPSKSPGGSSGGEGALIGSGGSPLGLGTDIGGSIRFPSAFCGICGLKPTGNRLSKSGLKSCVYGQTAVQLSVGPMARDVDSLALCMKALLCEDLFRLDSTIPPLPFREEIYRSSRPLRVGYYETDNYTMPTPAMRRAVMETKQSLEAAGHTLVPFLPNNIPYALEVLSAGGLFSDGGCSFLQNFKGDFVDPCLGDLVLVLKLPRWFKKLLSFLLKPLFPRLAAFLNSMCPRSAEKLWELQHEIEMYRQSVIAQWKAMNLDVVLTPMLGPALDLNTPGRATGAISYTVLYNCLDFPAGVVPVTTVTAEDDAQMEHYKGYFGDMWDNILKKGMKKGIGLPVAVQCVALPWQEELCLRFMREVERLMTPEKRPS
# Experimental: The compounds of the invention were subjected to pharmacological tests allowing determination of their inhibitory effect on the enzyme FAAH (Fatty Acid Amide Hydrolase).
# Accordingly, mouse brains (minus the cerebellum) are removed and stored at −80° C. Membrane homogenates are prepared at the time of use by homogenizing the tissues using a Precellys® apparatus in the reaction buffer (10 mM Tris-HCl pH=8, 150 mM NaCl and 1 mM ethylenediaminetetraacetic acid (EDTA)). The enzymatic reaction is conducted in 96-well Multiscreen filter plates, in a final volume of 70 μl. Reaction buffer supplemented with bovine serum albumin without fatty acids (BSA, 1 mg/ml) is used for the enzymatic reaction, the dilution of the compounds and of anandamide [1-^3H ethanolamine]. Added in succession to the wells are the reaction buffer containing the BSA (43 μl/well), the diluted test compounds at different concentrations (7 μl/well containing 1% DMSO) and the membrane preparation (10 μl/well or […] per assay). After the compounds have been pre-incubated with the enzyme at 25° C. for 20 minutes, the reaction is initiated by the addition of anandamide [1-^3H ethanolamine] […] The mixture is stirred for 10 minutes and then the aqueous phase containing the ethanolamine [1-^3H] is recovered by filtration under vacuum and counted by liquid scintillation.
melting point,IC50 [1],SMILES,reduction of the number of stretches induced by PBQ (male OF 1 mice)
121 to 123 °C,,"O=C(NCCC1CCN(c2cccc(-c3ccc(F)cc3)n2)CC1)OC(c1nccs1)C(F)(F)F (racemic) [Compound 50, 2,2,2-Trifluoro-1-thiazol-2-ylethyl (+/−)-2-[6′-(4-fluorophenyl)-3,4,5,6-tetrahydro-2H-[1,2′]bipyridinyl-4-yl]ethylcarbamate]",
100 to 102 °C,,"O=C(NCCC1CCN(c2ccc(-c3ccc(F)cc3)cn2)CC1)OCc1cncs1 [Compound 33, Thiazol-5-ylmethyl 2-[5′-(4-fluorophenyl)-3,4,5,6-tetrahydro-2H-[1,2′]bipyridinyl-4-yl]ethylcarbamate]",
157 to 159 °C,,"CCOc1ccc(-c2ccc(N3CCC(CCNC(=O)OCc4nccs4)CC3)nc2)cc1 [Compound 38, Thiazol-2-ylmethyl 2-[5′-(4-ethoxyphenyl)-3,4,5,6-tetrahydro-2H-[1,2′]bipyridinyl-4-yl]ethylcarbamate]",
131 to 133 °C,3 nM,"O=C(NCCC1CCN(c2ccc(-c3ccc(F)cc3)cn2)CC1)OCc1nccs1 [Compound 28, Thiazol-2-ylmethyl 2-[5′-(4-fluorophenyl)-3,4,5,6-tetrahydro-2H-[1,2′]bipyridinyl-4-yl]-ethylcarbamate]",33%
114 to 116 °C,,"O=C(NCCC1CCN(c2ccc3cc(Cl)ccc3n2)CC1)OC(c1nccs1)C(F)(F)F (racemic) [Compound 106, 2,2,2-Trifluoro-1-thiazol-2-ylethyl (+/−)-2-[1-(6-chloroquinolin-2-yl)piperidin-4-yl]ethylcarbamate]",
100 to 102 °C,,"O=C(NCCC1CCN(c2ccc3cc(F)ccc3n2)CC1)OCc1cncs1 [Compound 117, Thiazol-5-ylmethyl 2-[1-(6-fluoroquinolin-2-yl)piperidin-4-yl]ethylcarbamate]",
130 to 132 °C,7 nM,"O=C(NCCC1CCN(c2ccc(-c3ccc(F)cc3)cn2)CC1)OCc1cscn1 [Compound 30, Thiazol-4-ylmethyl 2-[5′-(4-fluorophenyl)-3,4,5,6-tetrahydro-2H-[1,2′]bipyridinyl-4-yl]ethylcarbamate]",80%
